Test results taken from paper PMC4608732, “Phosphorylation and Internalization of Lysophosphatidic Acid Receptors LPA1, LPA2, and LPA3” (PLoS ONE, 2015).

What was measured:
LPA2 receptor [1] = target: T1, LPA2 receptor (Homo sapiens, UniProt Q9HBW0); test: Heterologous (PMA) / homologous (LPA) desensitization of LPA-induced calcium response, LPA2 cells; format: cell-based
Procedure: (§1) This procedure has been described previously. Briefly, cells were loaded with 2.5 μM Fura-2 AM in Krebs–Ringer–Hepes containing 0.05% bovine serum albumin (pH 7.4) for 1 h at 37°C and then washed to eliminate unincorporated indicator. Determinations were carried in an AMINCO-Bowman Series 2 luminescence spectrometer, employing 340 and 380 nm excitation wavelengths and an emission wavelength of 510 nm; chopper interval was 0.5 sec. The intracellular calcium concentration was calculated as described by Grynkiewicz et al.. In the experiments where prolonged incubation was required (resensitization studies), cells were stimulated, washed, and the incubation was continued in the presence of Fura-2 AM, to avoid dye depletion.
(§2) Agonists-mediated decreases occurred in a concentration-dependent fashion, with a maximum at the concentration of ~ 100 nM. […] It is worth noticing that the shift in the curves was more pronounced in LPA1- or LPA3-expressing cells, than in those that expressed the LPA2 subtype.
(§3) Plotted are the increases in calcium as the percentage of that obtained in cells preincubated without any agent as mean ± S. E. M. of 6 experiments using different cell preparations.

LPA1 receptor [2] = target: T2, LPA1 receptor (Mus musculus, UniProt P61793); test: Heterologous (PMA) / homologous (LPA) desensitization of LPA-induced calcium response, LPA1 cells; format: cell-based
T2 construct: expressed in transfected cells
T2 sequence (P61793 whole entry): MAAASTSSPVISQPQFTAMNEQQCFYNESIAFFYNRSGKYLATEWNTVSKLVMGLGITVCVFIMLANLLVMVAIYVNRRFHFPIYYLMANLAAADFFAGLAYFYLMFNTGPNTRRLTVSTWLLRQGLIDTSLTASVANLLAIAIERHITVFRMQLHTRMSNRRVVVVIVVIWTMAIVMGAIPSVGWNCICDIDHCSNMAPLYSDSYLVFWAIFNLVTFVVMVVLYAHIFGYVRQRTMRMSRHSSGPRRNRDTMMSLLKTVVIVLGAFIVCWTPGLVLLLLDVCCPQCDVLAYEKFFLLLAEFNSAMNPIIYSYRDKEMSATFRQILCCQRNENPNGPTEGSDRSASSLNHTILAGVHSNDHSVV
Procedure: as §1, §2, §3

LPA3 receptor [3] = target: T3, LPA3 receptor (Homo sapiens, UniProt Q9UBY5); test: Heterologous (PMA) / homologous (LPA) desensitization of LPA-induced calcium response, LPA3 cells; format: cell-based
T3 sequence (Q9UBY5 1-353): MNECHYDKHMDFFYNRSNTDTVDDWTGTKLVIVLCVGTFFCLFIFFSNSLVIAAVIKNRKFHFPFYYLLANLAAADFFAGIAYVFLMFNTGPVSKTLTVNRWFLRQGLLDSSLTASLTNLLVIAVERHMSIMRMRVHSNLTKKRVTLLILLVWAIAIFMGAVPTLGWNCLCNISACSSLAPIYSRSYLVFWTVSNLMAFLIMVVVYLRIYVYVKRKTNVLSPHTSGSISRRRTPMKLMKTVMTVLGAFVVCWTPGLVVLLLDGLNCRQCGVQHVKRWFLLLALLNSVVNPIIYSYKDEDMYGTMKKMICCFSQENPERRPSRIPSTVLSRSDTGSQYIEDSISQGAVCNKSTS
Procedure: as §1, §2, §3

LPA2 receptor [4] = target: T1, LPA2 receptor; test: LPA2 receptor phosphorylation ([32P]Pi labeling, immunoprecipitation); format: cell-based
Procedure: (§4) The procedure was very similar to that previously described to study LPA1 receptor phosphorylation. In brief, cells were incubated in phosphate-free Dulbecco’s modified Eagle’s medium containing 100 μCi/ml [^32P]Pi for 3 h at 37°C. LPA1- and LPA2-expressing cells were cultured in 6 well plates, whereas those expressing LPA3 receptors were cultured in 10 cm dishes. Labeled cells were stimulated with the agents tested and then washed twice with ice-cold phosphate buffered saline and solubilized in buffer containing 10 mM Tris, 150 mM NaCl, 1% sodium cholate, 1% Nonident P40, protease and phosphatase inhibitors, pH 7.4 [11, 12, 14]. The lysates were incubated overnight with protein A-agarose and anti-GFP serum with constant agitation at 4°C. Samples were washed and the pellets containing the immunocomplexes were solubilized in Laemmli’s sample buffer containing 5% β-mercaptoethanol. Proteins were separated using 10% SDS-PAGE and electrotransferred onto polyvinyliden fluoride membranes. Receptor phosphorylation was analyzed with a Molecular Dynamics Typhoon PhosphorImager and the ImageJ software (http://rsb.info.nih.gov/ij/).

ERK 1/2 = ERK 1/2 phosphorylation (Western blotting) in C9 cells overexpressing LPA1-3; format: cell-based, rat; conditions: 10 μM AG1478 30 min
Procedure: Cells were cultured to near confluence in 6 well plates and stimulated with the agents tested for the times indicated. Total cellular extracts were obtained by lysing the cells in Laemmli’s sample buffer containing 5% β-mercaptoethanol. The cell extracts were subject to 10% SDS-PAGE and transferred to nitrocellulose membranes. Membranes from samples obtained in parallel were incubated overnight at 4°C, with anti-pERK 1/2 (1:2000) or anti ERK 1/2 (1:2000). The membranes were washed and incubated for 1 h at room temperature with a horseradish peroxidase-conjugated secondary antibody (1:10,000) for enhanced chemiluminescence detection.

LPA3 receptor [5] = target: T3, LPA3 receptor; test: LPA3 receptor phosphorylation ([32P]Pi labeling, immunoprecipitation); format: cell-based
LPA1 receptor [6] = target: T2, LPA1 receptor; test: LPA1 receptor phosphorylation ([32P]Pi labeling, immunoprecipitation); format: cell-based
Procedure: as §4

LPA2 receptor [7] = target: T1, LPA2 receptor; test: LPA2 receptor internalization, confocal imaging; format: cell-based; conditions: 1 μM agent, 30 or 60 min, LPA2 cells
Procedure: (§5) Cells were seeded at approximately 30% confluence onto glass-bottomed Petri dishes and cultured for 3 h at 37°C in media containing 1% serum. After treatment, cells were washed three times with phosphate buffered saline and fixed with 4% paraformaldehyde in 0.1 M phosphate buffer for 20 min at room temperature; samples were then washed three additional times with phosphate buffered saline. The fluorescent images were acquired with an Olympus Fluoview FV10 confocal microscope with a water-immersion objective (60X). To determine receptor internalization, the plasma membrane was delineated utilizing the differential interference contrast imaging, and fluorescence in this region was quantified employing the ImageJ software. At least 5 or 6 images of different cultures were taken for each condition. Data were normalized as follows: for each experiment, fluorescence (arbitrary units) at the plasma membrane of baseline samples were pooled and the average was considered as 100%.

LPA1 receptor [8] = target: T2, LPA1 receptor; test: LPA1 receptor internalization, confocal imaging; format: cell-based; conditions: 1 μM agent, 30 or 60 min, LPA1 cells
Procedure: as §5

LPA3 receptor [9] = target: T3, LPA3 receptor; test: LPA3 receptor internalization, confocal imaging; format: cell-based; conditions: 1 μM agent, 30 or 60 min, LPA3 cells
Procedure: as §5

[10] = read-out: IC50, inhibition of LPA-induced calcium response (heterologous desensitization)

T1 sequence (Q9HBW0 whole entry): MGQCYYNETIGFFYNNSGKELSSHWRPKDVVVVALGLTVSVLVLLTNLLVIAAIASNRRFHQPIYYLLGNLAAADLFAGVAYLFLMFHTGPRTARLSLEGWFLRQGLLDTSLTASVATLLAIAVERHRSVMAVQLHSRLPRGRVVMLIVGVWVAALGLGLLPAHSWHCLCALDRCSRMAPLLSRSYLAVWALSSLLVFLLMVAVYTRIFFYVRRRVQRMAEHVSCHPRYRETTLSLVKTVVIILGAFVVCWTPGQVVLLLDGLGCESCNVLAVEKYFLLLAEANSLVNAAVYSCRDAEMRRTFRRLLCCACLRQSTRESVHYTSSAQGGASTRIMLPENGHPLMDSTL

What does the source list for `CN(C)CCCn1cc(C2=C(c3c[nH]c4ccccc34)C(=O)NC2=O)c2ccccc21` [bisindolylmaleimide I, Bisindolylmaleimide I]?
effect on LPA-induced desensitization (LPA2 receptor [1]; 15 min preincubation with inhibitor, 1 μM LPA, LPA2 cells): unable to alter LPA-induced desensitization; effect on PMA-induced desensitization (LPA2 receptor [1]; 15 min preincubation with inhibitor, 1 μM PMA, LPA2 cells): markedly diminished PMA-induced desensitization; effect on LPA-induced desensitization (LPA1 receptor [2]; 15 min preincubation with inhibitor, 1 μM LPA, LPA1 cells): unable to alter LPA-induced desensitization; effect on PMA-induced desensitization (LPA1 receptor [2]; 15 min preincubation with inhibitor, 1 μM PMA, LPA1 cells): markedly diminished PMA-induced desensitization; effect on LPA-induced desensitization (LPA3 receptor [3]; 15 min preincubation with inhibitor, 1 μM LPA, LPA3 cells): unable to alter LPA-induced desensitization; effect on PMA-induced desensitization (LPA3 receptor [3]; 15 min preincubation with inhibitor, 1 μM PMA, LPA3 cells): markedly diminished PMA-induced desensitization

Which “effect on LPA-induced receptor phosphorylation” value (LPA2 receptor [4]; 10 μM AG1478 30 min, then 1 μM LPA 15 min, LPA2 cells) does the source give for `COc1cc2ncnc(Nc3cccc(Cl)c3)c2cc1OC` [AG1478] here?
The value was “markedly reduced (but did not abolish)”.

What about the “effect on baseline phospho-ERK signal” value (ERK 1/2; cells expressing LPA1 receptors) of the same molecule?
Its value is “did not alter it”.

And the “effect on baseline phospho-ERK signal” value (ERK 1/2; cells overexpressing LPA2, statistically insignificant)?
Its value is “decrease it”.

What about the “effect on baseline phospho-ERK signal” value (ERK 1/2; cells overexpressing LPA3, statistically significant) of the same molecule?
Its value is “decrease it”.

And the “effect on LPA- and EGF-induced ERK phosphorylation” value (ERK 1/2; then 1 μM LPA or 100 ng/ml EGF 5 min)?
Its value is “clearly diminished the effect of both growth factors”.

And the “effect on LPA-induced receptor phosphorylation” value (LPA3 receptor [5]; 10 μM AG1478 30 min, then 1 μM LPA 15 min, LPA3 cells)?
Its value is “markedly reduced (but did not abolish)”.

What about the “effect on LPA-induced receptor phosphorylation” value (LPA1 receptor [6]; 10 μM AG1478 30 min, then 1 μM LPA 15 min, LPA1 cells) of the same molecule?
The value was “markedly reduced (but did not abolish)”.

Which “time to maximum receptor phosphorylation” value (LPA2 receptor [4]; 1 μM agent, LPA2 cells) does the source give for `CCCCCCCCCCCCCC(=O)O[C@@H]1[C@@H](C)[C@@]2(O)[C@@H](C=C(CO)C[C@]3(O)C(=O)C(C)=C[C@@H]23)[C@@H]2C(C)(C)[C@]12OC(C)=O` [PMA, phorbol myristate acetate] here?
Its value is no more than 5 min.

And the “concentration-response curve, receptor phosphorylation” value (LPA2 receptor [4]; 15 min incubation, LPA2-overexpressing cells, shift to higher concentrations)?
The value was “no clear saturation was obtained”.

What about the “receptor internalization (decrease in fluorescence at the plasma membrane, compared with other subtypes)” value (LPA2 receptor [7]) of the same molecule?
Its value is “much less intense”.

What about the EC50 (LPA3 receptor [5]) of the same molecule?
Its EC50 is 3 to 10 nM.

What about the “time to maximum receptor phosphorylation” value (LPA3 receptor [5]; 1 μM agent, LPA3 cells) of the same molecule?
The value was no more than 5 min.

What about the “concentration at which receptor phosphorylation saturates” value (LPA3 receptor [5]; 15 min incubation, LPA3-overexpressing cells) of the same molecule?
The value was 100 nM.

What about the “receptor internalization (fluorescence at the plasma membrane)” value (LPA1 receptor [8]) of the same molecule?
Its value is “markedly decreasing fluorescence at the plasma membrane level”.

And the “remaining calcium response to LPA” value (LPA2 receptor [1]; LPA2 cells, highest PMA concentration tested)?
Its value is 30–40%.

And the IC50 (LPA2 receptor [1]; [10])?
Its IC50 is 3 to 10 nM.

What about the IC50 (LPA1 receptor [2]; [10]) of the same molecule?
Its IC50 is 1 to 3 nM.

And the “receptor internalization (fluorescence at the plasma membrane)” value (LPA3 receptor [9])?
Its value is “markedly decreasing fluorescence at the plasma membrane level”.

And the IC50 (LPA3 receptor [3]; [10])?
Its IC50 is 3 to 10 nM.

What about the EC50 (LPA1 receptor [6]) of the same molecule?
Its EC50 is 3 to 10 nM.

What about the “time to maximum receptor phosphorylation” value (LPA1 receptor [6]; 1 μM agent, LPA1 cells) of the same molecule?
Its value is no more than 5 min.

What about the “concentration at which receptor phosphorylation saturates” value (LPA1 receptor [6]; 15 min incubation, LPA1-overexpressing cells) of the same molecule?
Its value is 100 nM.
